ChEMBL document CHEMBL1667857, “Discovery of dual binding site acetylcholinesterase inhibitors identified by pharmacophore modeling and sequential virtual screening techniques” (Bioorg Med Chem Lett, 2011)

Key:
[1] = Selectivity index, ratio of IC50 for electric eel AChE to IC50 for BChE
Acetylcholinesterase = Acetylcholinesterase (Electrophorus electricus, UniProt O42275); assay: Inhibition of electric eel AChE by Ellman's method
[2] = target: Cholinesterase (Homo sapiens) (UniProt P06276); assay: Inhibition of BChE by Ellman's method; details: concentration not given here
Chain of Cholinesterase (Homo sapiens) (P06276 whole entry): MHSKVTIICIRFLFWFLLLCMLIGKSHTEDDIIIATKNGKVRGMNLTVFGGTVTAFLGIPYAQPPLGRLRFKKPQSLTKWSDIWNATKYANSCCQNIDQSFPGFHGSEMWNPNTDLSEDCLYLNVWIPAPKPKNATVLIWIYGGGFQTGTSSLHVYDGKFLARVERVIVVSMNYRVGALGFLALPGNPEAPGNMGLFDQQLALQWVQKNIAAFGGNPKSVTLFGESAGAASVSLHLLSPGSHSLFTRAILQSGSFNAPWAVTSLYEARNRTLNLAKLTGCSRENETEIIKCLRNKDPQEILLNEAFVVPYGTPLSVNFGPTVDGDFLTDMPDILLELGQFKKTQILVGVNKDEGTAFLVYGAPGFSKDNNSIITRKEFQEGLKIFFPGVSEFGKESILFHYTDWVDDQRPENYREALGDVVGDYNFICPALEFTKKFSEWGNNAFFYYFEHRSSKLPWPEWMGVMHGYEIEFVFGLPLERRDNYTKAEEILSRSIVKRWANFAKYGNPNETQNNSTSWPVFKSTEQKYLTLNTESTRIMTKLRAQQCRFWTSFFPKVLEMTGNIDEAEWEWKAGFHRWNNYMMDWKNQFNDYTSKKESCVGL

Chain of Acetylcholinesterase (O42275 whole entry): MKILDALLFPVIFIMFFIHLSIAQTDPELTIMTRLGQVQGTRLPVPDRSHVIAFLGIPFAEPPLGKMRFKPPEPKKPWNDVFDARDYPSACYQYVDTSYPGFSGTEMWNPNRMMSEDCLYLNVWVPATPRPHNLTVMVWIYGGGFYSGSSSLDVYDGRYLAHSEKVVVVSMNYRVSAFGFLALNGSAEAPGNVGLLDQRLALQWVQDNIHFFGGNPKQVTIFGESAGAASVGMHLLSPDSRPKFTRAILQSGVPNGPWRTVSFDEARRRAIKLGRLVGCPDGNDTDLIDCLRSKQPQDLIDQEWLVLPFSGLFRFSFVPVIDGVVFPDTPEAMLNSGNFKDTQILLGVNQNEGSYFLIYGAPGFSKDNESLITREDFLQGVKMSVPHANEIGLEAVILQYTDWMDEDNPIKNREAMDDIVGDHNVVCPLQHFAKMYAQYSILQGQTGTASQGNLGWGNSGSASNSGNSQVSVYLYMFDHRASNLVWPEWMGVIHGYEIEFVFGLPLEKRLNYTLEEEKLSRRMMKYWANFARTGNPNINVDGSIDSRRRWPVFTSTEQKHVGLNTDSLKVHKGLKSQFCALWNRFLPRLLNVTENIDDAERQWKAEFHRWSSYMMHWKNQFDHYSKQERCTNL

| Structure (SMILES) | Ratio IC50 [1] | IC50 (Acetylcholinesterase) | inhibition [2] |
| --- | --- | --- | --- |
| CCc1nn(CC(=O)NCCCN2C[C@H](C)C[C@@H](C)C2)c(=O)c2cc3sc(C)cc3n12 | 698 | 2000 nM | – |
| CCOC(=O)c1c(-c2ccc(OC)c(OC)c2)csc1NC(=O)CCN1CCC(C)CC1 | – | 3280 nM | < 10% |
| CCN(CC)c1ccc(NC(=O)c2nc3nc(C)cc(C(F)F)n3n2)cc1 | – | 1000 nM | – |
| Cc1ccc(OCC(=O)Nc2ccc(CN3CCCCC3)cc2)c(C)c1 | – | 1000 nM | – |
| O=C(CN1CCCCC1)Nc1ccc(NC(=O)CN2CCCCC2)c(Cl)c1 | – | 1000 nM | – |
| CCc1nc2sc3c(NCCN(C)C)ncnc3c2c2c1CCCC2 | – | 1000 nM | – |
| CCOC(=O)c1c(NC(=O)CCN2CCC(C)CC2)sc2c1C[C@@H](C)CC2 | – | 5990 nM | < 10% |
| COc1ccc(Br)cc1C(=O)Nc1ccc(CN2CCCCC2)cc1 | – | 1000 nM | – |
| Cc1cc(N2CCCC2)nc2ccc(NC(=O)CCC(=O)NC3CCCCC3)cc12 | – | 1000 nM | – |
| O=C(C1CCN(c2nnc(N3CCCC3=O)s2)CC1)N1CCCCCC1 | 342 | 1000 nM | – |
